From patent US6887878B2, “KMST isoeugenol derivatives and pharmaceutical activity” (Ing-Jun Chen, priority 2003, dated 2005) come the findings set out here.

The test system of experiment [1] is lipid peroxidation in rat brain homogenate. The experiment in a line: lipid peroxidation initiated by Fe2+-ascorbic acid in rat brain homogenates (TBARS). In kind it is biochemical. The protocol: Rat brain homogenate was made in 0.9% saline containing 10 mg tissue/ml. The rates of membrane lipid peroxidation were measured by the formation of thiobarbituric acid (TBA)-reactive substance (TBARS). Rat brain homogenates (1 ml) were incubated at 37° C. for 5 min with 10 μl of test compound or vehicle. […] After 30 min of incubation, the reaction was stopped by adding 0.1 ml of 0.2% BHT. TBA reagent was then added and the mixture was heated for 30 min in a boiling water bath. […] The amount of TBARS was quantified using the linear regression obtained from malondialdehyde (MDA) standards.

A further experiment concerns the target T1, β1-adrenoceptor (Rattus norvegicus, UniProt P18090).
T1 construct: Left atria were dissected from the hearts and mounted in a 10 ml organ bath; from tissue; host or cells: rat left atria, electrically driven
In words: isoprenaline-induced positive inotropic effects in electrically stimulated rat left atria (pA2). Details: species or system Wistar rat. The conditions noted are these: Schild plot, mean ± SEM of eight, listed as KMST. As for the experimental part:
Rats of either sex weighing 350-500 g were sacrificed after mild anesthesia with ether, and their hearts were quickly excised. Left atria were dissected from the hearts and mounted in a 10 ml organ bath with one end fixed and the other end connected to a force displacement transducer (Grass, Model FT03). […] Atria were pre-stretched to a baseline tension of 0.5 g and equilibrated for 60 min in an aerated Krebs solution before starting experimental protocols. Atria were driven at 2-s intervals via two platinum electrodes on each side. An incubation time of 30 min was allowed for the test compound.

The test system of experiment [2] is pentobarbital-anesthetized rats. In words: intravenous injection in pentobarbital-anesthetized rats, BP and HR. In kind it is in vivo, Wistar rat. The settings on record: intravenous administration. As for the experimental part:
(§1) In brief, Wistar rats weighing 250-300 g were anesthetized with pentobarbital sodium (50 mg kg^−1, i.p.). Following tracheal cannulation, systemic arterial BP and HR were recorded from the femoral artery by a pressure transducer (model P10EZ; Spectramed, Oxnard, Calif., U.S.A.) connected to a recorder (GOULD, Valley View, Ohio, Model P50). Body temperature was maintained at 37° C. by an electric heating pad. A femoral vein was cannulated for intravenous injection of drugs and LPS (10 mg kg^−1).

The nature of experiment [3]: LPS-induced blood glucose changes. In kind it is in vivo, rat. As for the experimental part:
as §1
Blood was collected from venous cannula, injected into ice-cold heparinized Eppendorf tubes and centrifuged at 1500 rpm for 10 min at 4° C. Plasma supernatant was stored at −70° C. until analyzed. Solid phase enzyme immunoassay that specifically detects murine IL-1β, IL-6, IFN-γ and TNF-α was used with a detection limit of >10 pg/ml (Endogen, U.S.A). Pre-treatment with KMST and other agents was performed 15 minutes before intravenous injection of LPS. Blood was collected from venous cannula. Blood glucose was measured with a glucose test strip (Glucotide, Bayer, U.S.A) at 1, 3 and 5 hours.

Experiment [4] concerns epinephrine-induced human platelet aggregation. In words: epinephrine-induced human platelet aggregation. In kind it is cell-based. The conditions noted are these: epinephrine 5 μM, PRP. As for the experimental part: (§2) Venous blood from human volunteer donors was collected in 10 ml Monovette containing 1 ml citrate solution (0.106M trisodium citrate; Sarstedt, Nümbrecht, Germany) and centrifuged (400 g, 10 min, 20° C.). […] After centrifugation (10 min, 2000 g, 20° C.), the platelet pellet was resuspended in wishing buffer (113 mM NaCl, 4 mM Na2HPO4, 24 mM NaH2PO4, 4 mM KCl, 0.2 mM EGTA(Ethylene glycol-bis-(2-aminoethyl ether) N,N,N′-tetraacetic acid), 0.1% (wt/vol) glucose, pH 6.0) and recentrifuged (10 min, 2000 g, 20° C.). The washed platelets were resuspended in incubation buffer (134 mM NaCl, 12 mM NaHCO3, 2.9 mM KCl, 0.34 mM NaH2PO4, 5 mM HEPES (N-(2-hydroxyethyl) piperazine-N′-(2-ethanesulfonic acid)), 5 mM glucose, pH7.4), cells were counted in a Sysmex hematology analyzer (Sysmex, CDA-500, Japan) and adjusted to a final concentration of 2×10^8 platelets/ml.
(§3) The aggregation of the platelets in platelet-rich plasma (PRP) was measured as a change in light absorbance by a Payton dual-channel aggregometer (NBS, Hema tracer, Japan). PRP (240 μL) was stirred (700 rpm) at 37° C. for 1 min, and 5 μL epinephrine (final concentration 5 μM), serotonin (final concentration 5 μM) was added. After which the rate of primary aggregation (1/min) and maximum aggregation (%) at 5 min were recorded. To study the effects of compounds on epinephrine or serotonin-induced aggregation, PRP was incubated with 5 μL of compounds at various concentrations for 1 min before epinephrine or serotonin was added. IC50 values given were calculated from the secondary aggregation data.

Experiment [5] deals with serotonin-induced human platelet aggregation. In words: serotonin-induced human platelet aggregation. In kind it is cell-based. The settings on record: serotonin 5 μM, PRP; read-out: IC50 serotonin-induced human platelet aggregation. As for the experimental part:
as §2, §3

The next experiment addresses T2, 5-HT re-uptake (Rattus norvegicus, UniProt P31652).
T2 construct: the cerebral cortex or striatum was dissected and crude synaptosomes were prepared; from tissue; host or cells: crude synaptosomes of Wistar rat cerebral cortex
In words: 5-HT re-uptake in cerebral cortex synaptosomes. Format: biochemical, Wistar rat. The conditions noted are these: read-out: IC50 of 5-HT uptake inhibition. As for the experimental part:
Wistar rats weighting 150-200 g were decapitated, the cerebral cortex or striatum was dissected and crude synaptosomes were prepared. […] Uptake was initiated by the addition of 50 μl of [^3H] […] Saline was added to the incubation mixture, which was then filtered through a Whatman GF/B glass filter under reduced pressure. To determine nonspecific uptake, incubation was performed at 0° C.

The next experiment concerns rats. In words: LPS-induced mortality. The settings on record: rat, in vivo.
A further experiment deals with T3, 5-HT1A (Rattus norvegicus, UniProt P19327).
T3 sequence (P19327 1-422): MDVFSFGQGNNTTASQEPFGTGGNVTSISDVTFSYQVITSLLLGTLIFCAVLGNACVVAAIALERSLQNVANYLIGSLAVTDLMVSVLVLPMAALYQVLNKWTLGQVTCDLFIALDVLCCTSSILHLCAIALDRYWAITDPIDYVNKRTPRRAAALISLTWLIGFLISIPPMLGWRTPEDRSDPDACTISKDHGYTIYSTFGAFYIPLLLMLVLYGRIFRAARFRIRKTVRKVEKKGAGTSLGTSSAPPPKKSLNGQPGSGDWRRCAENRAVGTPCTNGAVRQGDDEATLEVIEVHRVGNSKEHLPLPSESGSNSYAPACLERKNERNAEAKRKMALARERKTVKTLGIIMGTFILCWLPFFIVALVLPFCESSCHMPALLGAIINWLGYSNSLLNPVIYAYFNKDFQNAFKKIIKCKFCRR
The experiment in a line: [3H]WAY100635 receptor binding. The conditions noted are these: read-out: Ki 5-HT1A; [3H]WAY100635.

“And” between values parts separate entries of the source, which are not always exact repeats. Identical values can stand only once.

T1 sequence (P18090 whole entry): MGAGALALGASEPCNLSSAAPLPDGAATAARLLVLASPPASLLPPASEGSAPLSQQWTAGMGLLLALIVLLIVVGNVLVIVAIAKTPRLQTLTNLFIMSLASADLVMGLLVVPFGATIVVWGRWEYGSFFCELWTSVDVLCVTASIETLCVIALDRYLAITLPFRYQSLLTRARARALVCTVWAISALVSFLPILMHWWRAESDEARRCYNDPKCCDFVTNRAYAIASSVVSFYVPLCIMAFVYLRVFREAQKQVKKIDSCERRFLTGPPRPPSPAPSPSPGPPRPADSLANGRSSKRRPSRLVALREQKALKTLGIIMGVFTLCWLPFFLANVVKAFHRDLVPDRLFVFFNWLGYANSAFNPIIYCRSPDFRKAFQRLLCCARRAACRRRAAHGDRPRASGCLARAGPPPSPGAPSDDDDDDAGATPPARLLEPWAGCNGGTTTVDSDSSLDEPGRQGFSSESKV
T2 sequence (P31652 whole entry): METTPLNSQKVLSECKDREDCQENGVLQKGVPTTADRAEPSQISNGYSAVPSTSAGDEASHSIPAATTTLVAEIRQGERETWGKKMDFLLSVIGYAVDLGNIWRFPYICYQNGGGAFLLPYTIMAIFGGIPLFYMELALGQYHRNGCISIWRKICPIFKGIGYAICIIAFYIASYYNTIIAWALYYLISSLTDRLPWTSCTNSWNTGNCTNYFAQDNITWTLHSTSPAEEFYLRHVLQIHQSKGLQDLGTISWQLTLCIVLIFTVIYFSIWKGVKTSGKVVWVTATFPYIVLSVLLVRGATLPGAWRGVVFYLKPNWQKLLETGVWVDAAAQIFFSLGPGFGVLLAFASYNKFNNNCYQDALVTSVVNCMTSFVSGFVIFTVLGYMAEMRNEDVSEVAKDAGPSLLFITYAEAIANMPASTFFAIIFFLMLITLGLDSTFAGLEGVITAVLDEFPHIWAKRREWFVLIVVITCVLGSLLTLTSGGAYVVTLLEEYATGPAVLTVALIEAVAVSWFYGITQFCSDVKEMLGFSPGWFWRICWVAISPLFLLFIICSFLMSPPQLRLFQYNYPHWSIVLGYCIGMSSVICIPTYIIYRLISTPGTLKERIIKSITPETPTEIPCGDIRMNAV

As a reminder, the IC50 is the concentration that inhibits the measured activity by half. One may read the Ki as the dissociation constant of the complex between target and ligand, obtained from inhibition or displacement. As for `CC=Cc1ccc(OCC(O)CN2CCN(c3cccc(Cl)c3)CC2)c(OC)c1` (stereo not drawn) [Compound 1], in [1] (rat brain homogenate), the “potency of KMST relative to ascorbic acid, lipid peroxidation” value is given as roughly 3 times; the “potency of KMST relative to trazodone, lipid peroxidation” value was roughly 30 times; the “potency of KMST relative to yohimbine, lipid peroxidation” value is “approximately 5 times”. Further, in experiment [1] (rat brain homogenates, listed as KMST, read-out: IC50 inhibiting lipid peroxidation initiated by Fe2+-ascorbic acid), the IC50 turned out to be 2.68 µM. Further, at β1-adrenoceptor, the “β1 pA2 value” was 6.66±0.17 and 6.66. In experiment [2], the “mean BP and HR” value is reported as “dose-dependent decrease”; the “phenylephrine- and isoprenaline-induced changes in BP and HR” value is “inhibited”. Besides, in experiment [3] (at 1 and 3 hours), the LPS-induced early hyperglycemia entry was “inhibited”. For the same molecule, in experiment [3] (at 5 hours), the LPS-induced hypoglycemia result was “did not affect”. The molecule also had an IC50 in experiment [4] of 2.78 µM. The 50% inhibitory concentration (IC50) in [5] was 0.00363 µM. Also, at 5-HT re-uptake, the IC50 turned out to be 34.3 µM. In addition, in the experiment with rats, the LPS-induced death result is “did not prevent” and the “survival time after LPS” value is listed as “did prolong survival time”. Further, the Ki at 5-HT1A was greater than 10 µM.
